Results from patent US9228209B2, “Method for producing triptolide” (priority 2009, dated 2016).

Tests used:
[1] = test system: transcription factor NFκB; assay: Test of NFκB inhibition (TNFα stimulation in HaCaT keratinocyte cells); type: cell-based, human
Description: Transcription factor NFκB controls the expression of a large number of genes involved in inflammatory response regulation. Certain proinflammatory stimuli, such as tumor necrosis factor-α (TNFα), lead to NFκB activation, i.e., to its nuclear translocation. Consequently, NFκB will induce the transcription of proinflammatory genes coding for cytokines, chemokines, adhesion molecules, growth factors and inducible enzymes such as cyclooxygenase-2 (COX-2) and nitric oxide synthase (iNOS). NFκB plays a key role in the initiation and amplification of the inflammatory response. Certain chronic inflammatory diseases of the skin, such as atopic dermatitis or psoriasis, are characterized by deregulation of the expression of inflammation mediators expressed by keratinocytes. The anti-inflammatory activity of pure triptolide (TRP) in relation to that of plant cell culture extracts (IBO.18.134) with equivalent amounts of TRP is evaluated.
FIG. 6 represents the inhibition of various extracts on NFκB activation following TNFα stimulation in HaCaT keratinocyte cells. As a positive control, dexamethasone (2 μM), which inhibits NFκB activation by 36%, was used.

[2] = test system: RAW264.7 cells; assay: NO2− production by RAW264.7 cells stimulated with LPS (Griess reagent); type: cell-based, murine; conditions: identical TRP concentrations; 1 μg/ml LPS, 24 hours
Procedure: To this end, the test selected was NO2^− production by RAW264.7 cells stimulated with lipopolysaccharides (LPS).
Briefly, RAW264.7 cells (murine macrophages) were seeded at 1.4·10^5 cells/cm^2. After 24 hours, the cells were incubated for 1 hour with various concentrations of the products to be tested and then stimulated for 24 hours with 1 μg/ml of LPS. NO2 concentration was estimated in the culture supernatants using the Griess reagent.
The results (FIG. 7) illustrate NO2^− production obtained under the various conditions specified above. The percent inhibition calculated in relation to the LPS control appears in each histogram. Lastly, IC50 was calculated from these values (in bold blue).

SMILES | inhibition at 2 µM ([1]; Homo sapiens, HaCaT, read-out: inhibition of NFκB activation) | inhibition of NFκB activation ([1]; from 8 nM to 83 nM, TNFα stimulation, HaCaT keratinocyte cells) | NFκB inhibition, PCC extract compared with pure triptolide ([1]; identical triptolide concentrations of 8 nM, 28 nM and 83 nM) | inhibition of nitrite production induced by LPS [2]
C[C@@H]1C[C@H]2[C@@H]3CCC4=CC(=O)C=C[C@]4(C)[C@@]3(F)[C@@H](O)C[C@]2(C)[C@@]1(O)C(=O)CO [dexamethasone] | 36% | – | – | –
CC(C)[C@]12O[C@H]1[C@@H]1O[C@]13[C@]1(O[C@H]1C[C@H]1C4=C(CC[C@@]13C)C(=O)OC4)[C@@H]2O [triptolide, Triptolide] | – | inhibits in a dose-dependent manner | equivalent | inhibit nitrite production
